Results reported in patent US20250120967A1, “TYROSINE KINASES INHIBITORS AND USES THEREOF” (GREAT NOVEL THERAPEUTICS BIOTECH & MEDICALS CORPORATION, priority 2023, published 2025).
Read-outs that look alike come from different tables or passages of the source.

Key:
A549 cells = assay: In vitro cytotoxicity assay (MTT, 72 h); assay type: cell-based; details: Homo sapiens, growth inhibition
Description: (§1) Six different cell lines were used, including human breast cancer cell lines MDA-MB-231 (6×10^3) and MDA-MB-453 (2.4×10^4), human colorectal cell line SW48 (2.4×10^4), human breast epithelial cell line M10 (6×10^3), human cancer cell line A549 (1.4×10^3), and murine colorectal carcinoma tumors CT26 (6×10^3), which were seeded in a 96-well plate. […] After 72 h, MTT assay (Cayman™) was used to determine the cellular viability.

M10 cells = assay: In vitro cytotoxicity assay (MTT, 72 h); assay type: cell-based; details: growth inhibition, human normal cell line
Description: as §1

MDA-MB-231 cells = assay: In vitro cytotoxicity assay (MTT, 72 h); assay type: cell-based; details: Homo sapiens, growth inhibition
Description: as §1

MDA-MB-453 cells = assay: In vitro cytotoxicity assay (MTT, 72 h); assay type: cell-based; details: Homo sapiens, growth inhibition
Description: as §1

SW48 cells = assay: In vitro cytotoxicity assay (MTT, 72 h); assay type: cell-based; details: Homo sapiens, growth inhibition
Description: as §1

FRK (PTK5) = FRK (PTK5) (Homo sapiens, UniProt P42685); assay: Tyrosine kinase inhibition assay; assay type: biochemical; details: for IC50: read-out: IC50 of compound; for inhibition at 1 µM: single concentration 1.0 μM, read-out: percent inhibition
Description: (§2) Tyrosine kinase inhibition assays were performed at ThermoFisher Life Technologies (Madison, WI, USA) using standard protocols (SelectScreen Biochemical Profiling Service, Thermo Fisher Scientific). ATP concentrations used were at the apparent Km. Test compounds were screened in 1% dimethylsulffoxide (DMSO) (final concentration) in the well. For 10-point titrations, 3-fold serial dilutions were conducted from the starting concentration of […]. All Peptide/Kinase Mixtures were diluted to a 2× working concentration in the appropriate Kinase Buffer. All ATP Solutions were diluted to a 4× working concentration in Kinase Buffer (50 mM HEPES pH 7.5, 0.01% BRIJ-35, 10 mM MgCl2, 1 mM EGTA). The apparent ATP Km was previously determined using a Z′-LYTE assay. The Development Reagent was diluted in Development Buffer.
(§3) The inhibition activities of compounds were determined in biochemical assays using single concentration (1.0 μM) measurements. The results were provided as percent inhibition values.

RET = RET (Homo sapiens, UniProt P07949); assay: Tyrosine kinase inhibition assay; assay type: biochemical; details: for inhibition at 1 µM: single concentration 1.0 μM, read-out: percent inhibition
Description: as §2, §3

CSF1R (FMS) = CSF1R (FMS) (Homo sapiens, UniProt P07333); assay: Tyrosine kinase inhibition assay; assay type: biochemical; details: for IC50: read-out: IC50 of compound; for inhibition at 1 µM: single concentration 1.0 μM, read-out: percent inhibition
Description: as §2
(§4) The inhibition activities of compounds were determined in biochemical assays using single concentration (1.0 μM) measurements. The results were provided as percent inhibition values. […] 99 different tyrosine kinases were used.

MST1R (RON) = MST1R (RON) (Homo sapiens, UniProt Q04912); assay: Tyrosine kinase inhibition assay; assay type: biochemical; details: for IC50: read-out: IC50 of compound; for inhibition at 1 µM: single concentration 1.0 μM, read-out: percent inhibition
Description: as §2, §4

TYRO3 (RSE) = target: T1, TYRO3 (RSE) (Homo sapiens, UniProt Q06418); assay: Tyrosine kinase inhibition assay; assay type: biochemical; details: for inhibition at 1 µM: single concentration 1.0 μM, read-out: percent inhibition
T1 sequence (Q06418 41-890): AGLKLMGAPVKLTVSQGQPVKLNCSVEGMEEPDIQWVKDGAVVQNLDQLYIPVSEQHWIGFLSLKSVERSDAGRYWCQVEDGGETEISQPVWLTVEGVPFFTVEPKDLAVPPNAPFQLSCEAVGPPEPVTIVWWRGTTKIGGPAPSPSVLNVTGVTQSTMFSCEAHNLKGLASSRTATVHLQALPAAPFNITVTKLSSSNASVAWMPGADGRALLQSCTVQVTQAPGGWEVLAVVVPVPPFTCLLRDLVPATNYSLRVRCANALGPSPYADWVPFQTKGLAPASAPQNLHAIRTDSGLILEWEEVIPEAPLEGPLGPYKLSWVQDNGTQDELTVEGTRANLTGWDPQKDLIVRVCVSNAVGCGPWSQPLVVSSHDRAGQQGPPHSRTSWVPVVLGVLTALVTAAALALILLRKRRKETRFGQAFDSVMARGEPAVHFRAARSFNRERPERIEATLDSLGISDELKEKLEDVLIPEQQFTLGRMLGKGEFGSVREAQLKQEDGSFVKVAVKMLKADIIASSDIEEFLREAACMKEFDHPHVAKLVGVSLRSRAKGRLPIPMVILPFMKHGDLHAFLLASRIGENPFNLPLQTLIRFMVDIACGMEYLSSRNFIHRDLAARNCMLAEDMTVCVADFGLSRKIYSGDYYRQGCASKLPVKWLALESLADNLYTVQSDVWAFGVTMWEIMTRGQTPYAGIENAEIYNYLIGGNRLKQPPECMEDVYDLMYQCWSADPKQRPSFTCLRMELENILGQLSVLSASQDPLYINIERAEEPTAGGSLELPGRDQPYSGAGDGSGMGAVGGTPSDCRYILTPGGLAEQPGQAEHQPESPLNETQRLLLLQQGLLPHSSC
Description: as §2, §4

[1] = TYRO3 (RSE), read-out: IC50 of compound

RET, sequence (P07949 29-1114): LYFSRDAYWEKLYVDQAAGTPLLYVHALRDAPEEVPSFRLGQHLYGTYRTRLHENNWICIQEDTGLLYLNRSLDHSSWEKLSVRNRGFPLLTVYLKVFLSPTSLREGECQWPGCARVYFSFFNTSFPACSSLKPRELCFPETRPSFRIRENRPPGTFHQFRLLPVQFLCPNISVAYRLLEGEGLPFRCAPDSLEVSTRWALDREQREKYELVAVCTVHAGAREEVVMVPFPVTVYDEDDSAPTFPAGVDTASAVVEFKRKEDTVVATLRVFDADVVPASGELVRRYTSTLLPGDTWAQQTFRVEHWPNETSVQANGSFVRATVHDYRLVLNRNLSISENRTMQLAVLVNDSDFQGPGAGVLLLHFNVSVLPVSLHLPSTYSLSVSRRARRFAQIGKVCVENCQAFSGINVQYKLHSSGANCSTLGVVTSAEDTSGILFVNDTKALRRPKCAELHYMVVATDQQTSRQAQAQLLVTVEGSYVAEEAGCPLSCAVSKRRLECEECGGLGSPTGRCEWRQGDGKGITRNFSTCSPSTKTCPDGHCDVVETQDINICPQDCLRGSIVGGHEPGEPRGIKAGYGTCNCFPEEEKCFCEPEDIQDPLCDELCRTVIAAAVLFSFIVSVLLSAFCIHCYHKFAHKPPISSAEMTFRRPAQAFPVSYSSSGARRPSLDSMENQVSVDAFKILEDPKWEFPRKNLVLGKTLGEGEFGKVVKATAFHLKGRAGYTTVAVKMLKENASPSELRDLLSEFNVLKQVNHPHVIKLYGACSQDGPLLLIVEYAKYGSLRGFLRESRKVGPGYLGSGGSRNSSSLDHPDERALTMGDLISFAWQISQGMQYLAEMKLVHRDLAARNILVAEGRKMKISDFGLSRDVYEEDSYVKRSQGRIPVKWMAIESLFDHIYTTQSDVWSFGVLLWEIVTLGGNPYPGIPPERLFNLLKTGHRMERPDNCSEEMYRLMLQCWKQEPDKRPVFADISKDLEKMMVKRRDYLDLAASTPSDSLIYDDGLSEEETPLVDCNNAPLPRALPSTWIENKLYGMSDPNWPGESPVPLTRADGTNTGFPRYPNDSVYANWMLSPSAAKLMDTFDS
MST1R (RON), sequence (Q04912 25-1400): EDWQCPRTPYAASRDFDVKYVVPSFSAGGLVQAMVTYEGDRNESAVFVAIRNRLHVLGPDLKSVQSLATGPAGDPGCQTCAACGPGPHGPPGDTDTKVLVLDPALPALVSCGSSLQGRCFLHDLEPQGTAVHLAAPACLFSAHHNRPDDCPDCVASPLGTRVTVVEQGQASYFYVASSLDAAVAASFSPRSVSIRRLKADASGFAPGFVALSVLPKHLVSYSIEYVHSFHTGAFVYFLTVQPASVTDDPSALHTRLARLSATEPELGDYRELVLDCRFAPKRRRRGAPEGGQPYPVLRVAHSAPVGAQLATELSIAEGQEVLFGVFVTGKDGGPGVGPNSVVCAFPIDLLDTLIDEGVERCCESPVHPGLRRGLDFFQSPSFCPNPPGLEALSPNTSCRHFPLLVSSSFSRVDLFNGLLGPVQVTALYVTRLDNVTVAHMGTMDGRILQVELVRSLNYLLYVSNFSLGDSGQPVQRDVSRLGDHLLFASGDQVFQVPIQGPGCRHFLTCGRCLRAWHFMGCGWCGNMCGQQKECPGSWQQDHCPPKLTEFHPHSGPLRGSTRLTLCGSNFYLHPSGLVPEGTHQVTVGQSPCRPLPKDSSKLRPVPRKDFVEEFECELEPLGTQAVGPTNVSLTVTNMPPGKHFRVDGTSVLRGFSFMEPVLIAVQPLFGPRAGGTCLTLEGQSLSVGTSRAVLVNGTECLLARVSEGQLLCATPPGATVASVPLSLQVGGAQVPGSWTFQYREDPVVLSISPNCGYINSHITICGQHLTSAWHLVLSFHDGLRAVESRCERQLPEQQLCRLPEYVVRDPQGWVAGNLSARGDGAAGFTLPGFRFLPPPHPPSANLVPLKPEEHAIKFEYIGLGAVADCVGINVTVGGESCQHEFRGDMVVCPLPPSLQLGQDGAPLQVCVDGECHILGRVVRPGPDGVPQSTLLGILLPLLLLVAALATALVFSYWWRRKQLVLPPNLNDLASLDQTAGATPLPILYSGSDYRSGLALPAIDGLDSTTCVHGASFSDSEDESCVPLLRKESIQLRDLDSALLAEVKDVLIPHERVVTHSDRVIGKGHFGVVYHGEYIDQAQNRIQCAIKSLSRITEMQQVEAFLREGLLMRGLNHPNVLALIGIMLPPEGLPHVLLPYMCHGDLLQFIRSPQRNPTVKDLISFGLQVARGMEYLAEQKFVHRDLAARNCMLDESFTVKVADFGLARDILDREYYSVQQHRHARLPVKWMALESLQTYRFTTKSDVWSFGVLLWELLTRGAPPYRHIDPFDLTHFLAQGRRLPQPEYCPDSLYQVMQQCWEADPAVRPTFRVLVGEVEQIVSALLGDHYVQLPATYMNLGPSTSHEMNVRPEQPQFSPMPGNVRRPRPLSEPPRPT
FRK (PTK5), sequence (P42685 whole entry): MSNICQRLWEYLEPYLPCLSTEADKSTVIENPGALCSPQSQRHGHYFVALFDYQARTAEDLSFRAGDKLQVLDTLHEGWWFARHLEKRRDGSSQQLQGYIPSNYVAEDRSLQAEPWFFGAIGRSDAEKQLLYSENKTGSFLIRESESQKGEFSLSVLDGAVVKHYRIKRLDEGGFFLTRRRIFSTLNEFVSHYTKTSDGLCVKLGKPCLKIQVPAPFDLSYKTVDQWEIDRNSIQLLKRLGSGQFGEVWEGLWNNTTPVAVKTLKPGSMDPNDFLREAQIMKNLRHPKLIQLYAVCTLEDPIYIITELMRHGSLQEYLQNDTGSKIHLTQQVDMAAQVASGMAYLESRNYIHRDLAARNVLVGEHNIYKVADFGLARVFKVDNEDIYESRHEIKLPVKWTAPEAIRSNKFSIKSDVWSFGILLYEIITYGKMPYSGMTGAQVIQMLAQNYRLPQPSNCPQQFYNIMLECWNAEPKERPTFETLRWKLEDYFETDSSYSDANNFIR
CSF1R (FMS), sequence (P07333 20-972): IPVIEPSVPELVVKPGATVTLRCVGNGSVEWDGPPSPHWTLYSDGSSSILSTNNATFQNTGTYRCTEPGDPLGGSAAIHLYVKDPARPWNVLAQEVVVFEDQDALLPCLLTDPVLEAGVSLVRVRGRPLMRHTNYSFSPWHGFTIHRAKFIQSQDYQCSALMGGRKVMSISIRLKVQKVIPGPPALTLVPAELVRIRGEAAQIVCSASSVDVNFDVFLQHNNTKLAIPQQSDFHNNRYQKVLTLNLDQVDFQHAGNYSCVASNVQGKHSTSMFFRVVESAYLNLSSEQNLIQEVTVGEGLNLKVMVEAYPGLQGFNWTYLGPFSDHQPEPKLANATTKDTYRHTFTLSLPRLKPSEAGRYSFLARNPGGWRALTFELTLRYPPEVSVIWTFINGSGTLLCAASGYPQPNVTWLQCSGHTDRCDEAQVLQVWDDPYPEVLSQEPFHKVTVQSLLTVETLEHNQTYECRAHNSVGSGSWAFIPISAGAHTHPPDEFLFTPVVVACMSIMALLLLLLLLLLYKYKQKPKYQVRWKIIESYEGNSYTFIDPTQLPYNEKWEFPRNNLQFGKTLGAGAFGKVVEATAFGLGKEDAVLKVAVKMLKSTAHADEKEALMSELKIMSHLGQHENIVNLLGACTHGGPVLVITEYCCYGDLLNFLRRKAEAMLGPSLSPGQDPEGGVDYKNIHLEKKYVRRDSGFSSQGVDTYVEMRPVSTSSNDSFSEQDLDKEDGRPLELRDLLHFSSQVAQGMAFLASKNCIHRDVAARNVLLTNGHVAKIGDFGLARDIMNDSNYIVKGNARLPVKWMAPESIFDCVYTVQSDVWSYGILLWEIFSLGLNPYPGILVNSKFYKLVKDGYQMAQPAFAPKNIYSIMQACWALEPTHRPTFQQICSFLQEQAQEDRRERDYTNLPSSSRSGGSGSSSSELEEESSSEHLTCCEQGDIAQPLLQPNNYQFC

SMILES	IC50 (A549 cells) [nM]	IC50 (M10 cells) [nM]	IC50 (MDA-MB-231 cells) [nM]	IC50 (MDA-MB-453 cells) [nM]	IC50 (SW48 cells) [nM]	IC50 (FRK (PTK5)) [nM]	inhibition at 1 µM (FRK (PTK5)) [%]	inhibition at 1 µM (RET) [%]	IC50 (CSF1R (FMS)) [nM]	inhibition at 1 µM (CSF1R (FMS)) [%]	IC50 (MST1R (RON)) [nM]	inhibition at 1 µM (MST1R (RON)) [%]	IC50 (TYRO3 (RSE); [1]) [nM]	inhibition at 1 µM (TYRO3 (RSE); TYRO3 (RSE)) [%]	IC50 (RET; read-out: IC50 of compound) [nM]	IC50 (TYRO3 (RSE)) [nM]
COc1cc2nccc(Oc3ccc(NC(=O)C4(C(=O)Nc5ccc(F)cc5)CC4)cc3F)c2cc1Oc1ccc(N)cc1F [Cbo-23]	1690 ± 130	1010 ± 20	1950 ± 1950	1710 ± 140	790 ± 5	27	99	101	40.2	99	51.5	101	12.5	100	–	–
COc1cc2nccc(Oc3ccc(NC(=O)C4(NC(=O)c5ccc(F)cc5)CC4)cc3F)c2cc1Oc1ccc(N)cc1F [Cbo-10]	1180 ± 36	911 ± 25	2450 ± 140	4670 ± 280	790 ± 1	–	91	79	–	96	–	100	–	87	–	–
COc1cc2nccc(Oc3ccc(NC(=O)C4(NC(=O)c5ccc(F)cc5)CC4)cc3F)c2cc1OC [Cbo-02, N-(1-((4-((6,7-diMethoxyquinolin-4-yl)oxy)-3-fluorophenyl)carbamoyl)cyclopropyl)-4-fluorobenzamide]	1510 ± 57	3920 ± 250	5640 ± 360	5310 ± 570	820 ± 11	–	59	67	–	83	–	96	–	58	–	–
CNC(=O)c1cc2c(Oc3ccc(NC(=O)C4(C(=O)Nc5ccc(F)cc5)CC4)cc3)ccnc2cc1OC [Zanzalintinib, reference compound]	7580 ± 180	3280 ± 1840	6170 ± 150	22600 ± 1050	6860 ± 260	10.3	–	–	16.3	–	135	–	9.49	–	22.5	–
COc1cc2nccc(Oc3ccc(NC(=O)C4(NC(=O)c5ccc(F)cc5)CC4)cc3F)c2cc1Oc1c(F)cc(N)cc1F [Cbo-14]	1230 ± 34	920 ± 8	14400 ± 5300	2680 ± 750	790 ± 1	–	100	89	–	93	–	100	–	89	–	–
COc1cc2nccc(Oc3ccc(NC(=O)C4(C(=O)Nc5ccc(F)cc5)CC4)cc3)c2cc1OC [Cabozantinib, reference compound]	4050 ± 460	9570 ± 1620	8720 ± 1080	20500 ± 4480	4330 ± 330	–	99	98	11.9	88	–	95	–	–	–	9.1
